Laboratory results from patent publication US7378435B2, “Aryl-isoxazole-4-carbonyl-indole-carboxylic acid amide derivatives” (Hoffmann-La Roche Inc., priority 2005, dated 2008).
Where two headings read alike, the source gives them in different places.

Target: T1, GABA A receptor α5β3γ2 (Homo sapiens, UniProt P18507+P31644)
T1 construct: expressed in transfected cells; host or cells: HEK293 (transiently transfected for the human receptors)
Assay: [3H]flumazenil competition binding, human GABA A α5β3γ2 receptors expressed in HEK293 cells
Conditions: mean of two determinations
Description: The affinity of compounds at GABA A receptor subtypes was measured by competition for [3H]flumazenil (85 Ci/mmol; Roche) binding to HEK293 cells expressing rat (stably transfected) or human (transiently transfected) receptors of composition α1β3γ2, α2β3γ2, α3β3γ2 and α5β3γ2.
Cell pellets were suspended in Krebs-tris buffer (4.8 mM KCl, 1.2 mM CaCl2, 1.2 mM MgCl2, 120 mM NaCl, 15 mM Tris; pH 7.5; binding assay buffer), homogenized by polytron for ca. 20 sec on ice and centrifuged for 60 min at 4° C. (50000 g; Sorvall, rotor: SM24=20000 rpm). The cell pellets were resuspended in Krebs-tris buffer and homogenized by polytron for ca. 15 sec on ice. Protein was measured (Bradford method, Bio-Rad) and aliquots of 1 mL were prepared and stored at −80° C.
Radioligand binding assays were carried out in a volume of […] (96-well plates) which contained […] of cell membranes, [3H]flumazenil at a concentration of 1 nM for α1, α2, α3 subunits and 0.5 nM for α5 subunits and the test compound in the range of […]. Nonspecific binding was defined by 10^−5 M diazepam and typically represented less than 5% of the total binding. Assays were incubated to equilibrium for 1 hour at 4° C. and harvested onto GF/C uni-filters (Packard) by filtration using a Packard harvester and washing with ice-cold wash buffer (50 mM Tris; pH 7.5). After drying, filter-retained radioactivity was detected by liquid scintillation counting. Ki values were calculated using Excel-Fit (Microsoft) and are the means of two determinations.

[1] = Table 1, human α5, [3H]flumazenil, read-out: Ki h
[2] = human α5β3γ2, 0.5 nM [3H]flumazenil, read-out: Ki[μM] hα5

Cc1onc(-c2ccc(F)cc2)c1C(=O)c1c[nH]c2cc(C(=O)NCCN3CCOCC3)ccc12 [Example 14, 3-[3-(4-Fluoro-phenyl)-5-methyl-isoxazole-4-carbonyl]-1H-indole-6-carboxylicacid (2-morpholin-4-yl-ethyl)-amide]
Ki [1]: 0.00455 µM
Ki [2]: 0.00455 µM

Cc1onc(-c2ccc(F)cc2)c1C(=O)c1c[nH]c2cc(C(=O)NCc3ccco3)ccc12 [Example 15, 3-[3-(4-Fluoro-phenyl)-5-methyl-isoxazole-4-carbonyl]-1H-indole-6-carboxylicacid (furan-2-ylmethyl)-amide]
Ki [1]: 0.00485 µM
Ki [2]: 0.00484 µM

Cc1onc(-c2ccc(F)cc2)c1C(=O)c1c[nH]c2cc(C(=O)NCc3ccncc3)ccc12 [Example 16, 3-[3-(4-Fluoro-phenyl)-5-methyl-isoxazole-4-carbonyl]-1H-indole-6-carboxylicacid (pyridin-4-ylmethyl)-amide]
Ki [1]: 0.00365 µM
Ki [2]: 0.00365 µM

Cc1onc(-c2ccc(F)cc2)c1C(=O)c1c[nH]c2cc(C(=O)NCCCN3CCOCC3)ccc12 [Example 17, 3-[3-(4-Fluoro-phenyl)-5-methyl-isoxazole-4-carbonyl]-1H-indole-6-carboxylicacid (3-morpholin-4-yl-propyl)-amide]
Ki [1]: 0.0043 µM
Ki [2]: 0.0043 µM

Cc1onc(-c2ccc(F)cc2)c1C(=O)c1c[nH]c2cc(C(=O)NCCO)ccc12 [Example 18, 3-[3-(4-Fluoro-phenyl)-5-methyl-isoxazole-4-carbonyl]-1H-indole-6-carboxylicacid (2-hydroxy-ethyl)-amide]
Ki [1]: 0.00185 µM
Ki [2]: 0.00185 µM

C#CCN(C)C(=O)c1ccc2c(C(=O)c3c(-c4ccc(F)cc4)noc3C)c[nH]c2c1 [Example 19, 3-[3-(4-Fluoro-phenyl)-5-methyl-isoxazole-4-carbonyl]-1H-indole-6-carboxylicacid methyl-prop-2-ynyl-amide]
Ki [1]: 0.0606 µM

C#CCNC(=O)c1ccc2c(C(=O)c3c(-c4ccc(F)cc4)noc3C)c[nH]c2c1 [Example 20, 3-[3-(4-Fluoro-phenyl)-5-methyl-isoxazole-4-carbonyl]-1H-indole-6-carboxylicacid prop-2-ynylamide]
Ki [1]: 0.00325 µM
Ki [2]: 0.00325 µM

Cc1onc(-c2ccc(F)cc2)c1C(=O)c1c[nH]c2cc(C(=O)NC3CCOCC3)ccc12 [Example 21, 3-[3-(4-Fluoro-phenyl)-5-methyl-isoxazole-4-carbonyl]-1H-indole-6-carboxylicacid (tetrahydro-pyran-4-yl)-amide]
Ki [1]: 0.005 µM
Ki [2]: 0.005 µM

Cc1onc(-c2ccc(F)cc2)c1C(=O)c1c[nH]c2cc(C(=O)NC3CCCC3)ccc12 [Example 22, 3-[3-(4-Fluoro-phenyl)-5-methyl-isoxazole-4-carbonyl]-1H-indole-6-carboxylicacidcyclopentylamide]
Ki [1]: 0.00975 µM
Ki [2]: 0.00975 µM

Cc1onc(-c2ccc(F)cc2)c1C(=O)c1c[nH]c2cc(C(=O)NC3CC3)ccc12 [Example 23, 3-[3-(4-Fluoro-phenyl)-5-methyl-isoxazole-4-carbonyl]-1H-indole-6-carboxylicacidcyclopropylamide]
Ki [1]: 0.00305 µM
Ki [2]: 0.00305 µM

Cc1onc(-c2ccc(F)cc2)c1C(=O)c1c[nH]c2cc(C(=O)NCc3cccnc3)ccc12 [Example 24, 3-[3-(4-Fluoro-phenyl)-5-methyl-isoxazole-4-carbonyl]-1H-indole-6-carboxylicacid (pyridin-3-ylmethyl)-amide]
Ki [1]: 0.00225 µM
Ki [2]: 0.00225 µM

Cc1onc(-c2ccc(F)cc2)c1C(=O)c1c[nH]c2cc(C(=O)NC3CCC3)ccc12 [Example 25, 3-[3-(4-Fluoro-phenyl)-5-methyl-isoxazole-4-carbonyl]-1H-indole-6-carboxylicacidcyclobutylamide]
Ki [1]: 0.00675 µM
Ki [2]: 0.00675 µM

Cc1onc(-c2cccc(F)c2)c1C(=O)c1c[nH]c2cc(C(=O)NCCc3cnc[nH]3)ccc12 [Example 26, 3-[3-(3-Fluoro-phenyl)-5-methyl-isoxazole-4-carbonyl]-1H-indole-6-carboxylicacid [2-(1H-imidazol-4-yl)-ethyl]-amide]
Ki [1]: 0.0235 µM
